This note sets out measurements from ChEMBL document CHEMBL4806958, “Anti-cancer/anti-fibrosis compounds” (2020).

A word on the pIC50: it is the IC50 on a negative log10 scale, so that one unit is a factor of ten.

SMILES strings stand for the structures. pIC50: −log10 of the molar value. The source made the active and inactive calls. The rule behind the calls is not given here.

One assay concerns HeLa. The assay can be described thus: Cytotoxicity against human HeLa cells assessed as reduction in cell viability measured after 7 days by Celltiter-glo luminescent cell viability assay. Conditions: 168 h. The class given is functional, cell-based. In general terms: In ATP-based viability assays light output follows the ATP content of the culture.
The subject of assay [1] is MV4-11. Briefly: Down regulation of YAP level in human MV-4-11 cells at 0.03 to 3 uM after 48 hrs by Western blotting analysis. Conditions: dose 0.03-3 µM. The class given is functional, cell-based. (A western blot detects proteins with antibodies after separation by electrophoresis.)
A further assay has as its system MOLM-14. The assay can be described thus: Down regulation of phosphorylated-STAT1 level in human MOLM-14 cells at 0.03 to 3 uM after 48 hrs by Western blotting analysis. Conditions: dose 0.03-3 µM. It is filed as functional, cell-based.
Assay [2] has as its target Cyclin-dependent kinase 19 (Homo sapiens, UniProt Q9BWU1). The assay can be described thus: Inhibition of kinase tracer 236 binding to GST-tagged CDK19 (unknown origin) incubated for 60 mins by LanthaScreen Eu-Kinase binding assay. In general terms: TR-FRET usually uses a lanthanide donor and a delayed reading to cut background.
Assay [3] deals with MV4-11. Briefly: Down regulation of phosphorylated-STAT3 level in human MV-4-11 cells after 48 hrs by Western blotting analysis. It is filed as functional, cell-based. Conditions: dose 0.03-3 µM.
Assay [4] relates to MV4-11. Briefly: Down regulation of phosphorylated-STAT1 level in human MV-4-11 cells after 24 hrs by Western blotting analysis. The class given is functional, cell-based. Conditions: dose 0.03-10 µM.
The subject of another assay is COLO357. The assay can be described thus: Cytotoxicity against human COLO-357 cells assessed as reduction in cell viability and measured after 7 days by Celltiter-glo luminescent cell viability assay. As to conditions: COLO357, 168 h. It is filed as functional, cell-based.
In another assay the test system is OE33. Briefly: Cytotoxicity against human OE33 cells assessed as reduction in cell viability measured after 7 days by Celltiter-glo luminescent cell viability assay. It is filed as functional, cell-based. Conditions: OE33, 168 h.
Assay [5] can be described thus: Cytotoxicity against human CLL-119 cells assessed as reduction in cell viability measured after 7 days by Celltiter-glo luminescent cell viability assay. The class given is functional, cell-based. Conditions: CLL-119, 168 h.
Another assay relates to U-251. The assay can be described thus: Cytotoxicity against human U251 cells assessed as reduction in cell viability and measured after 7 days by Celltiter-glo luminescent cell viability assay. It is filed as functional, cell-based. Conditions: U-251, 168 h.
For the next assay, the target named is CDK8/Cyclin C (Homo sapiens, UniProt P49336). The assay can be described thus: Inhibition of kinase tracer 236 binding to His-tagged CDK8/cyclin C (unknown origin) incubated for 60 mins by LanthaScreen Eu-Kinase binding assay. It is filed as protein-complex assay.
Sequence of CDK8/Cyclin C (P49336 whole entry): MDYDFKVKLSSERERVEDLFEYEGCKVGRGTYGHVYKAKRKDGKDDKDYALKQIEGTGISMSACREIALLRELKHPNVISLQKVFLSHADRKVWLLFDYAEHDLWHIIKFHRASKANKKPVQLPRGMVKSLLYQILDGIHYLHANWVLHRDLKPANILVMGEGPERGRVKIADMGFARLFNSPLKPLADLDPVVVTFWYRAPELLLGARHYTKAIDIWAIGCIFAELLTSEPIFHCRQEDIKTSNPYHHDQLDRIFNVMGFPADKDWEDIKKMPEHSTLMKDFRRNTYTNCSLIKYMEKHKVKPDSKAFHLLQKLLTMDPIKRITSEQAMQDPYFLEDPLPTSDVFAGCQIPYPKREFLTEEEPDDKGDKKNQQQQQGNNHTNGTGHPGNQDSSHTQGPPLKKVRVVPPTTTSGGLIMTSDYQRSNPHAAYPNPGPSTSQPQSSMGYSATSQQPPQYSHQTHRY
Sequence of CDK8/Cyclin C (P24863 whole entry, further chain): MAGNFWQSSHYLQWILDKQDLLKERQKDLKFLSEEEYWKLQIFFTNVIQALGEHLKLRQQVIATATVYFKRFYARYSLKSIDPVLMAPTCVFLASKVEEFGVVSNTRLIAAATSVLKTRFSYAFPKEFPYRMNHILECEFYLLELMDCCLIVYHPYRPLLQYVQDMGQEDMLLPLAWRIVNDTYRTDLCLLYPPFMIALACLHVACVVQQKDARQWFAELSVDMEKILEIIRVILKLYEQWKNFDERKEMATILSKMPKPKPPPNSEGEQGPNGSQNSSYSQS
A further assay has as its system Huh-7. The assay can be described thus: Cytotoxicity against human Huh-7 cells assessed as reduction in cell viability and measured after 7 days by Celltiter-glo luminescent cell viability assay. As to conditions: Huh-7, 168 h. It is filed as functional, cell-based.
The test system of assay [6] is MV4-11. Briefly: Antitumor activity against human MV-4-11 cells xenografted in NCr nu/nu mouse assessed as tumor growth inhibition at 50 mg/kg, po administered twice a day for 21 days and measured for every 3 days. The class given is functional, organism-based. As to conditions: time 21.0 day.
Assay [7] concerns MV4-11. The assay can be described thus: Down regulation of MCL-1 level in human MV-4-11 cells at 0.03 to 3 uM after 48 hrs by Western blotting analysis. It is filed as functional, cell-based. As to conditions: dose 0.03-3 µM.

Sequence of Cyclin-dependent kinase 19 (Q9BWU1 whole entry): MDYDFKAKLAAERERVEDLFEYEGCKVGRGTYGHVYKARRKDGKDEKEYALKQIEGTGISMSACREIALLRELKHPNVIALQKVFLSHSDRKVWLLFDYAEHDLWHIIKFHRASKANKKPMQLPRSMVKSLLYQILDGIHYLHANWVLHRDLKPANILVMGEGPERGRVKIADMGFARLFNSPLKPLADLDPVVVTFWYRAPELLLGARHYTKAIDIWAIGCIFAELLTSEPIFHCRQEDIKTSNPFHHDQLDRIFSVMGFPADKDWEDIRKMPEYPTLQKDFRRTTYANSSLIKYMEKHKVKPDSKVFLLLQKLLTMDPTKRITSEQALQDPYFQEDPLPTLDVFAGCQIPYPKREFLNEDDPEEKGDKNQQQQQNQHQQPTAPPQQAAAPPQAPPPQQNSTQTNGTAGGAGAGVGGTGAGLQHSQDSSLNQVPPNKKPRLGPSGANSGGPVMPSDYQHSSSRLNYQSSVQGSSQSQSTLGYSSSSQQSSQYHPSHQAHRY

For the compound `Nc1nccc2c(Br)cc3cc(C(=O)[O-])ccc3c12.[Na+]`, the pIC50 is 6.00 with HeLa; over 6.52 in assay [2]; 6.00 in the assay with COLO357; over 6.00 with OE33; over 6.00 in [5]; 6.00 with U-251. Further, the pIC50 was over 6.52 at CDK8/Cyclin C and over 6.00 in the assay on Huh-7. Moreover, the outcome in the assay on MV4-11 [1], with MOLM-14, with MV4-11 [6] and in the assay on MV4-11 [7] was Active. The Activity entry with MV4-11 [3] and in the assay on MV4-11 [4] was “Dose-Dependent Effect” throughout.
